The results in this text go back to patent US4517004A, “Aryl phosphoric triamide and aryl phosphorodiamidate urease and nitrification inhibitors and urease and nitrification inhibited urea and reduced nitrogen based fertilizer compositions” (Allied Corporation, priority 1983, dated 1985).

Where two headings read alike, the source gives them in different places.

Assay [1] relates to urease in soil (Cazenovia silt loam; Plano silt loam). The assay is described as follows: Urease inhibition efficacy test in soil (urea remaining after incubation). The format is biochemical. Conditions: 40 micrograms compound per gram soil, 42.8 mg urea per 20 g soil, incubated 3 days at 25° C., triplicate; for % Inhibition 40 Micrograms per gram soil, Cazenovia pH 7.2: New York soil (Cazenovia silt loam). The protocol: Efficacy tests were conducted to evaluate the efficacy of certain representative phosphoric triamide compounds of this invention as urease inhibitors in comparison with the known compound 4-aminophenylphosphoric triamide. The inhibition tests were run in a New York soil (Cazenovia silt loam, pH 7.0), or in Wisconsin soil (Plano silt loam). Evaluations (run in triplicate) consisted of applying 800 micrograms of the test compound in 5 mL of water and 42.8 mg of urea in 1 mL of water to 20 g of air-dry soil in a glass bottle. The bottle was capped with perforated aluminum foil and incubated at 25° C. for three days prior to extraction with 100 mL of a 2M KCl solution containing 0.5 mg of phenylmercuric acetate. The extracts were then analyzed for remaining urea using an autoanalyzer. Percent inhibition was calculated as [formula] where A is urea recovered from unincubated sample (urea added to soil and immediately extracted); B is urea recovered from inhibited sample; and C is urea recovered from the control (uninhibited sample).

Assay [2] concerns the target T1, jack bean urease (Sigma, Type IX) (Canavalia ensiformis, UniProt P07374).
T1 construct: purchased Sigma Type IX
The assay is described as follows: Efficacy test with commercial purified jack bean urease in homogeneous solution (modified Bremner procedure). The format is biochemical. Conditions: read-out: % Inhibition 10^-6 M. The protocol: Efficacy tests were also conducted with jack bean urease. The procedure of Bremner (see L. A. Douglas, J. M. Bremner, Soil Biol. Biochem., 3, 859-62 (1970 and references therein) was modified by replacing the soil as the source of urease with commercial purified jack bean urease (Sigma, Type IX). The incubation then proceeds in homogeneous solution. The results are generally parallel to those obtained in the soil test of Example IV and are given in Table II.

A further assay deals with soil nitrification. The assay is described as follows: Nitrification inhibition efficacy test in Cazenovia silt loam soil (nitrate formed from diammonium phosphate). Particulars: Cazenovia silt loam pH 7.3. As for the experimental part: Efficacy tests were conducted to evaluate the efficacy of certain representative phosphoric triamide compounds as nitrification inhibitors. All compounds were evaluated in Cazenovia silt loam soil (pH 7.3). The evaluations consisted of applying either simultaneously (to) or after 14 days (t14) a solution of 6.00 mg (300 μg/g soil) at diammonium phosphate in 1 mL of water to triplicate 20 g samples of air dry soil contained in 250 mL square glass bottles that had been treated with a solution of either 0 or 0.800 mg (40 μg/g soil) of the test compound in 5 mL of water. Each bottle was capped with perforated aluminum foil, incubated for 14 days at 25° C. after diammonium phosphate application, and then extracted with 100 mL of 2M potassium chloride containing 0.5 mg (5 mg/L) of phenylmercuric acetate. Each extract was allowed to settle, and an aliquot was frozen and then analyzed for nitrate using an autoanalyzer. The percent inhibition obtained during the incubation was calculated by the formula: [formula] where A is the nitrate recovered from unincubated soil before diammonium phosphate addition; B is nitrate recovered from uninhibited soil; and C is nitrate recovered from inhibited soil.

Where [3] appears, read: compound at 10^-6 M, purified jack bean urease, homogeneous solution.

T1 sequence (P07374 whole entry, looked up): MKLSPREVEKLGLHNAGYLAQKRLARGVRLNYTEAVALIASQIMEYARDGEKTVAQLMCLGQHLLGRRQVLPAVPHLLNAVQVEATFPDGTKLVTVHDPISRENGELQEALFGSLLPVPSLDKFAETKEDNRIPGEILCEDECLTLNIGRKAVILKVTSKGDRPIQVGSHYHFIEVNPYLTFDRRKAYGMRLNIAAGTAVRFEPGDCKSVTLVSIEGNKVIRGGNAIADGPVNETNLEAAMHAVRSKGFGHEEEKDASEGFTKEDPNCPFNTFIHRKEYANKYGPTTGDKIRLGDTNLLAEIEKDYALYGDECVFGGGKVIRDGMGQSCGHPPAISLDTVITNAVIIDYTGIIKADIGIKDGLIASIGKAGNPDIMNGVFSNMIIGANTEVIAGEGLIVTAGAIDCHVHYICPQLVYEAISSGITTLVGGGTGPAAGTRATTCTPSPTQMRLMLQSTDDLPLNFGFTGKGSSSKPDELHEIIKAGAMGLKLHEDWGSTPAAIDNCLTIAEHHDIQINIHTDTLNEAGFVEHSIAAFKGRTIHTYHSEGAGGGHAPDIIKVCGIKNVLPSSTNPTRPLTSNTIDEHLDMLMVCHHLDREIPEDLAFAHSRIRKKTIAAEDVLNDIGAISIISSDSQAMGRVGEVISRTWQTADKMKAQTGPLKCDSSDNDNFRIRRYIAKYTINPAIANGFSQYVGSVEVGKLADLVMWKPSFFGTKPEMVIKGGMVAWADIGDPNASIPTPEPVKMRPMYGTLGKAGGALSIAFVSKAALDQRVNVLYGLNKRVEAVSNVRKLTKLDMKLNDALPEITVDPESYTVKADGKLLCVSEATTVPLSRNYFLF

As to `Nc1ccc(NP(N)(N)=O)cc1` [4-Aminophenylphosphoric triamide, 4-aminophenylphosphoric triamide, reference compound], in assay [1], the “% Inhibition 40 Micrograms per gram soil, Cazenovia pH 7.2” value is 55%. Moreover, the inhibition at 1 µM in assay [2] was 0%.

Turning to `Nc1ccc(OP(N)(N)=O)cc1` [4-Aminophenylphosphorodiamidate, 4-aminophenylphosphorodiamidate], in assay [1], the “% Inhibition 40 Micrograms per gram soil, Cazenovia pH 7.2” value was found to be 91%. The inhibition at 1 µM in assay [2] (setting [3]) was 80%.

Regarding `CN(c1ccc(O)cc1)P(N)(N)=O` [N-(Methyl)-N-(4-hydroxyphenyl) Phosphoric triamide], the “% Inhibition 40 Micrograms per gram soil, Cazenovia pH 7.2” value in assay [1] was determined as 87%. The “% Inhibition 40 Micrograms per gram soil, Wisconsin pH 5.4” value in assay [1] (Wisconsin soil (Plano silt loam), pH 5.4) turned out to be 33%.

In the case of `CC(C)(C)c1cc(OP(N)(N)=O)ccc1O` [Phosphorodiamidic Acid 3-(1',1'-dimethylethyl)-4-hydroxyphenyl Ester], in assay [1], the “% Inhibition 40 Micrograms per gram soil, Cazenovia pH 7.2” value was 87%. Besides, the “% Inhibition at 40 μg per gram of soil, t14” value in the assay on soil nitrification (diammonium phosphate (300 μg/g soil) applied 14 days after compound (t14), 14 days at 25° C. after application) is recorded as 0%. The “% Inhibition at 40 μg per gram of soil, t0” value in the assay with soil nitrification (diammonium phosphate (300 μg/g soil) applied simultaneously with compound (t0), 14 days at 25° C.) was 39%. Moreover, the inhibition at 1 µM in assay [2] (setting [3]) came to 29%.
